Experimental data as given in PubChem BioAssay (NCI).
“And” between values parts separate entries of the source, which are not always exact repeats. Equal values may be shown once.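 How tested: cells in 96-well plates exposed to compound for 48 hours at five concentrations. GI50: concentration for 50% inhibition of growth. TGI: total growth inhibition.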

What was measured:
Assay in all cases: DTP human tumour cell line panel, 48 h
MOLT-4 leukemia = test system: MOLT-4 leukemia
UACC-257 melanoma = test system: UACC-257 melanoma
HCT-116 colon = test system: HCT-116 colon
TK-10 renal = test system: TK-10 renal
OVCAR-5 ovarian = test system: OVCAR-5 ovarian
PC-3 prostate = test system: PC-3 prostate
NCI-H522 lung = test system: NCI-H522 lung
SK-OV-3 ovarian = test system: SK-OV-3 ovarian
SF-268 CNS = test system: SF-268 CNS
OVCAR-3 ovarian = test system: OVCAR-3 ovarian
HOP-62 NSCLC = test system: HOP-62 NSCLC
BT-549 breast = test system: BT-549 breast
HCT-15 colon = test system: HCT-15 colon
OVCAR-8 ovarian = test system: OVCAR-8 ovarian
SK-MEL-2 melanoma = test system: SK-MEL-2 melanoma
SN12C renal = test system: SN12C renal
RXF 393 renal = test system: RXF 393 renal
SNB-75 CNS = test system: SNB-75 CNS
LOX IMVI melanoma = test system: LOX IMVI melanoma
SW-620 colon = test system: SW-620 colon
MDA-MB-231 breast = test system: MDA-MB-231 breast
ACHN renal = test system: ACHN renal
CAKI-1 renal = test system: CAKI-1 renal
DU-145 prostate = test system: DU-145 prostate
M14 melanoma = test system: M14 melanoma
NCI-H226 lung = test system: NCI-H226 lung
CCRF-CEM leukemia = test system: CCRF-CEM leukemia
OVCAR-4 ovarian = test system: OVCAR-4 ovarian
HL-60(TB) leukemia = test system: HL-60(TB) leukemia
A549 NSCLC = test system: A549 NSCLC
MDA-N = test system: MDA-N
COLO 205 colon = test system: COLO 205 colon
MCF7 breast = test system: MCF7 breast
SR leukemia = test system: SR leukemia
HS 578T breast = test system: HS 578T breast
K-562 leukemia = test system: K-562 leukemia
RPMI-8226 leukemia = test system: RPMI-8226 leukemia
786-0 renal = test system: 786-0 renal
HOP-92 NSCLC = test system: HOP-92 NSCLC
SF-539 CNS = test system: SF-539 CNS
SK-MEL-28 melanoma = test system: SK-MEL-28 melanoma
NCI-H460 lung = test system: NCI-H460 lung
UACC-62 melanoma = test system: UACC-62 melanoma
NCI-H23 lung = test system: NCI-H23 lung
MDA-MB-435 = test system: MDA-MB-435
A498 renal = test system: A498 renal
HCC-2998 colon = test system: HCC-2998 colon
SF-295 CNS = test system: SF-295 CNS
IGROV1 ovarian = test system: IGROV1 ovarian
EKVX NSCLC = test system: EKVX NSCLC
SK-MEL-5 melanoma = test system: SK-MEL-5 melanoma
NCI/ADR-RES ovarian = test system: NCI/ADR-RES ovarian
MALME-3M melanoma = test system: MALME-3M melanoma
HT29 colon = test system: HT29 colon
U251 CNS = test system: U251 CNS
SNB-19 CNS = test system: SNB-19 CNS
T-47D breast = test system: T-47D breast
UO-31 renal = test system: UO-31 renal
KM12 colon = test system: KM12 colon

CC1OC(OC2C(O[C@H]3CC[C@@]4(C)C(=CC[C@H]5[C@@H]6C[C@@H]7O[C@]8(CC[C@@H](C)CO8)[C@@H](C)[C@@H]7[C@@]6(C)CC[C@@H]54)C3)OC(CO)C(OC3OC(CO)C(O)C3O)C2O)C(O)C(O)C1O (stereo not given in full)
GI50 (MOLT-4 leukemia): 0.187 µM
TGI (MOLT-4 leukemia): 1.8 µM and 0.412 µM
GI50 (UACC-257 melanoma): 1.14 µM
TGI (UACC-257 melanoma): 1.71 µM and 2.35 µM
GI50 (HCT-116 colon): 1.26 µM
TGI (HCT-116 colon): 1.6 µM and 2.52 µM
TGI (TK-10 renal): 2.85 µM and 2.24 µM
GI50 (OVCAR-5 ovarian): 1.32 µM
TGI (OVCAR-5 ovarian): 1.53 µM and 2.59 µM
GI50 (PC-3 prostate): 0.533 µM
TGI (PC-3 prostate): 1.48 µM and 1.78 µM
GI50 (NCI-H522 lung): 1.23 µM
TGI (NCI-H522 lung): 1.77 µM and 2.47 µM
GI50 (SK-OV-3 ovarian): 1.29 µM
TGI (SK-OV-3 ovarian): 1.76 µM and 2.55 µM
TGI (SF-268 CNS): 1.61 µM and 2.03 µM
GI50 (OVCAR-3 ovarian): 1.49 µM
TGI (OVCAR-3 ovarian): 1.79 µM and 2.82 µM
GI50 (HOP-62 NSCLC): 1.13 µM
TGI (HOP-62 NSCLC): 1.84 µM and 2.34 µM
GI50 (BT-549 breast): 1.37 µM
TGI (BT-549 breast): 1.84 µM and 2.66 µM
GI50 (HCT-15 colon): 0.621 µM
TGI (HCT-15 colon): 1.99 µM and 1.94 µM
GI50 (OVCAR-8 ovarian): 0.423 µM
TGI (OVCAR-8 ovarian): 1.16 µM and 1.5 µM
GI50 (SK-MEL-2 melanoma): 1.46 µM
TGI (SK-MEL-2 melanoma): 1.82 µM and 2.78 µM
GI50 (SN12C renal): 0.243 µM
TGI (SN12C renal): 1.22 µM and 0.678 µM
GI50 (RXF 393 renal): 0.294 µM
TGI (RXF 393 renal): 1.83 µM and 0.962 µM
TGI (SNB-75 CNS): 1.62 µM
GI50 (LOX IMVI melanoma): 0.21 µM
TGI (LOX IMVI melanoma): 1.19 µM and 0.517 µM
GI50 (SW-620 colon): 0.195 µM
TGI (SW-620 colon): 2.57 µM and 0.419 µM
GI50 (MDA-MB-231 breast): 0.497 µM
TGI (MDA-MB-231 breast): 1.6 µM and 1.65 µM
TGI (ACHN renal): 1.58 µM and 2.12 µM
GI50 (CAKI-1 renal): 0.602 µM
TGI (CAKI-1 renal): 1.76 µM and 1.86 µM
TGI (DU-145 prostate): 2.26 µM and 2.15 µM
GI50 (M14 melanoma): 0.205 µM
TGI (M14 melanoma): 1.43 µM and 0.362 µM
TGI (NCI-H226 lung): 1.73 µM
TGI (CCRF-CEM leukemia): 0.413 µM
GI50 (OVCAR-4 ovarian): 1.08 µM
TGI (OVCAR-4 ovarian): 2.2 µM and 2.26 µM
GI50 (HL-60(TB) leukemia): 0.506 µM
TGI (HL-60(TB) leukemia): 1.77 µM and 1.89 µM
GI50 (A549 NSCLC): 0.203 µM
TGI (A549 NSCLC): 1.3 µM and 0.367 µM
GI50 (MDA-N): 1.13 µM
TGI (MDA-N): 1.46 µM and 2.34 µM
GI50 (COLO 205 colon): 0.381 µM
TGI (COLO 205 colon): 1.24 µM and 1.29 µM
GI50 (MCF7 breast): 1.11 µM
TGI (MCF7 breast): 1.52 µM and 2.3 µM
TGI (SR leukemia): 2.25 µM
TGI (HS 578T breast): 1.78 µM and 2.24 µM
TGI (K-562 leukemia): 50 µM
GI50 (RPMI-8226 leukemia): 0.212 µM
TGI (RPMI-8226 leukemia): 2.71 µM and 0.586 µM
GI50 (786-0 renal): 0.221 µM
TGI (786-0 renal): 1.34 µM and 0.464 µM
GI50 (HOP-92 NSCLC): 1.22 µM
TGI (HOP-92 NSCLC): 1.98 µM and 2.46 µM
GI50 (SF-539 CNS): 0.343 µM
TGI (SF-539 CNS): 1.3 µM and 1.08 µM
GI50 (SK-MEL-28 melanoma): 0.21 µM
TGI (SK-MEL-28 melanoma): 1.37 µM and 0.522 µM
TGI (NCI-H460 lung): 1.53 µM
GI50 (UACC-62 melanoma): 0.349 µM
TGI (UACC-62 melanoma): 1.5 µM and 1.07 µM
GI50 (NCI-H23 lung): 1.23 µM
TGI (NCI-H23 lung): 1.6 µM and 2.47 µM
GI50 (MDA-MB-435): 0.434 µM
TGI (MDA-MB-435): 2 µM and 1.57 µM
GI50 (A498 renal): 0.733 µM
TGI (A498 renal): 1.62 µM and 1.98 µM
TGI (HCC-2998 colon): 1.19 µM
GI50 (SF-295 CNS): 0.448 µM
TGI (SF-295 CNS): 1.53 µM and 1.62 µM
GI50 (IGROV1 ovarian): 0.45 µM
TGI (IGROV1 ovarian): 1.61 µM and 1.62 µM
GI50 (EKVX NSCLC): 1.05 µM
TGI (EKVX NSCLC): 1.77 µM and 2.23 µM
GI50 (SK-MEL-5 melanoma): 0.487 µM
TGI (SK-MEL-5 melanoma): 1.43 µM and 1.67 µM
GI50 (NCI/ADR-RES ovarian): 1.19 µM
TGI (NCI/ADR-RES ovarian): 1.79 µM and 2.44 µM
GI50 (MALME-3M melanoma): 0.324 µM
TGI (MALME-3M melanoma): 1.61 µM and 0.891 µM
GI50 (HT29 colon): 1.01 µM
TGI (HT29 colon): 1.62 µM and 2.17 µM
GI50 (U251 CNS): 0.325 µM
TGI (U251 CNS): 1.44 µM
GI50 (SNB-19 CNS): 0.649 µM
TGI (SNB-19 CNS): 1.48 µM and 1.82 µM
GI50 (T-47D breast): 1.39 µM
TGI (T-47D breast): 2.68 µM
TGI (UO-31 renal): 1.5 µM
GI50 (KM12 colon): 0.287 µM
TGI (KM12 colon): 2.39 µM and 0.849 µM
